SMILES strings stand for the structures. pIC50: −log10 of the molar value.

One data set has as its system TNF-α. The data set is described as follows: In vitro cell experiment: LPS-stimulated TNF-α release in THP-1 cells (ELISA). In kind it is cell-based. As to conditions: Homo sapiens; TNF-α in supernatant of THP-1 cells, compound 2 h then LPS 10 μg/ml 2 h. An excerpt: I. In Vitro Cell Experiment
Cells: human monocytic leukemia THP-1 cells (obtained from the Shanghai Cell Bank of Chinese Academy of Sciences).
Lipopolysaccharides: from Escherichia coli O55: B5, L2880 (Sigma).
Kit: Human TNF-α Elisa MAX Deluxe Set, 430206 (Biolegend)
(In general: ELISA stands for enzyme-linked immunosorbent assay.)

In another data set the target is p38a (Homo sapiens (Human), UniProt Q16539). In words: Assay of p38 kinase activity (fluorescence, peptide substrate). It is filed as biochemical. As to conditions: 40 nM p38a, 100 μM ATP, 90 minutes. The procedure:
II. Assay of p38 Kinase Activity
Experimental Method: 40 nM p38a was added into a reaction buffer, which include 20 mM HEPES (4-hydroxyethylpiperazine ethanesulfonic acid), 5 mM MgCl2 and 1 mM DTT (dithiothreitol) at pH 7.4. 40 μM phosphorylated peptide substrate was added, followed by different concentrations of drugs and 100 μM ATP (adenosine triphosphate), and reacted for 90 minutes in dark. […] The IC50 values of the compounds were obtained according to the fluorescence values.

In another data set the target is CYP450, 2C9 enzymes (Homo sapiens (Human), UniProt P11712). In words: CYP450 enzyme inhibition test in human liver microsome. In kind it is in vitro ADME. Conditions: CYP450 2C9, LC-MS/MS.
Sequence of CYP450, 2C9 enzymes (P11712 whole entry): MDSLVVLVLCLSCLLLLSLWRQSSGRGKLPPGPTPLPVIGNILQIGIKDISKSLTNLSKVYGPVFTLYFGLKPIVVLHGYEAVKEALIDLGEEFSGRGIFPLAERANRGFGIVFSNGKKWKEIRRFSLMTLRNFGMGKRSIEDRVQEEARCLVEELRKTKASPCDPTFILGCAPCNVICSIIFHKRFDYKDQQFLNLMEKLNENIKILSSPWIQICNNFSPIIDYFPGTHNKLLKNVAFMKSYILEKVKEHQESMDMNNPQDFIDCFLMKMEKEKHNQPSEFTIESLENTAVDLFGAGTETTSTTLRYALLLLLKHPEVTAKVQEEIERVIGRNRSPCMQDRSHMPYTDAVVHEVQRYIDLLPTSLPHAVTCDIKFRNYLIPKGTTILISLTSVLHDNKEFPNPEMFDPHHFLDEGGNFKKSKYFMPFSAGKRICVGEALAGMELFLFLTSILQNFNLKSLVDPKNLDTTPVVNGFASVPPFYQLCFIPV

Sequence of p38a (Q16539 whole entry): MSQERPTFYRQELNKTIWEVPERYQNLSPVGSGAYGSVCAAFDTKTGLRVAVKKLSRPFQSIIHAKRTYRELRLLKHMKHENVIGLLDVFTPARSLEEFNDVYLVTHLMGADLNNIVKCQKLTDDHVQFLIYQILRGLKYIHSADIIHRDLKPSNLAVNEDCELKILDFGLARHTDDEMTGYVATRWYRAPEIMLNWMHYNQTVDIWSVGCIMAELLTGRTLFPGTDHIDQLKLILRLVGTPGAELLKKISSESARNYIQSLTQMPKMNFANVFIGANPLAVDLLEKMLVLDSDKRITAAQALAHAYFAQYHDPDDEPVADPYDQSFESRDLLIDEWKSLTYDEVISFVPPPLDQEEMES

As a reminder, the pIC50 is the negative decadic logarithm of the IC50, by convention in mol/L. On to `Cc1c(F)cc(C(=O)NC2CC2)cc1-c1ccc(C(=O)N(C)CC(C)C)nn1` [Example 3], for which the pIC50 is 8.00 to 8.30 in the data set with TNF-α; more than 8.30 against p38a; less than 4.30 against CYP450, 2C9 enzymes.

With `Cc1c(F)cc(C(=O)NC2CC2)cc1-c1ccc(C(=O)NC2CCCC2)nn1` [Example 4], the pIC50 with TNF-α is more than 8.30; on p38a it was more than 8.30; against CYP450, 2C9 enzymes, less than 4.30.

Regarding `Cc1c(F)cc(C(=O)NC2CC2)cc1-c1ccc(C(=O)NC2CCCCC2)nn1` [Example 5, N-cyclohexyl-6-(5-(cyclopropylcarbamoyl)-3-fluoro-2-methylphenyl) pyridazin-3-carboxamide], the pIC50 in the data set on TNF-α was more than 8.30; against p38a it was more than 8.30; against CYP450, 2C9 enzymes it was less than 4.30.

For `CCCCCNC(=O)c1ccc(-c2cc(C(=O)NC3CC3)cc(F)c2C)nc1` [Example 9, 6-(5-(cyclopropylcarbamoyl)-3-fluoro-2-methylphenyl)-N-pentylnicotinamide], the pIC50 in the data set on TNF-α and at p38a was 8.00 to 8.30 throughout.

`Cc1c(F)cc(C(=O)NC2CC2)cc1-c1ccc(C(=O)NC2CCCCC2)cn1` [Example 10, N-cyclohexyl-6-(5-(cyclopropylcarbamoyl)-3-fluoro-2-methylphenyl) nicotinamide] had a pIC50 in the data set on TNF-α of more than 8.30.

In the case of `Cc1c(F)cc(C(=O)NC2CC2)cc1-c1ccc(C(=O)N2CCCCCC2)cn1` [Example 14], the pIC50 in the data set with TNF-α is 8.00 to 8.30.

`Cc1c(F)cc(C(=O)NC2CC2)cc1-c1ccc(C(=O)NCC(C)C)nc1` [Example 15, 5-(5-(cyclopropylcarbamoyl)-3-fluoro-2-methylphenyl)-N-isobutylpyridin-2-formamide]: the pIC50 in the data set with TNF-α and at p38a was more than 8.30 each time.

Take `Cc1c(F)cc(C(=O)NC2CC2)cc1-c1ccc(C(=O)N(C)CC(C)C)nc1` [Example 16, 5-(5-(cyclopropylcarbamoyl)-3-fluoro-2-methylphenyl)-N-isobutyl-N-methylpyridin-2-formamide]: the pIC50 in the data set with TNF-α was more than 8.30; against p38a it was more than 8.30; on CYP450, 2C9 enzymes, less than 4.30.

With `Cc1c(F)cc(C(=O)NC2CC2)cc1-c1ccc(C(=O)NC2CCCC2)nc1` [Example 17, N-cyclopentyl-5-(5-(cyclopropylcarbamoyl)-3-fluoro-2-methylphenyl)pyridin-2-foramamide], the pIC50 in the data set on TNF-α was more than 8.30.

`CCCN(CCC)C(=O)c1ccc(-c2cc(C(=O)NC3CC3)cc(F)c2C)cc1` [Example 20, N^3-cyclopropyl-5-fluoro-6-methyl-N^4′,N^4′-dipropyl-[1,1′-biphenyl]-3,4′-dicarboxamide] showed a pIC50 with TNF-α of 8.00 to 8.30.

`Cc1c(F)cc(C(=O)NC2CC2)cc1-c1ccc(C(=O)NC2CCCC2)cc1` [Example 22] gave a negative logarithm of the IC50 (pIC50) with TNF-α of more than 8.30.

Take `Cc1c(F)cc(C(=O)NC2CC2)cc1-c1ccc(C(=O)N(C)C2CCCC2)cc1` [Example 23, N^4′-cyclopentyl-N^3-cyclopropyl-5-fluoro-N^4′,6-dimethyl-[1,1′-biphenyl]-3,4′-dicarboxamide]: the pIC50 in the data set on TNF-α was 8.00 to 8.30.

Turning to `Cc1c(F)cc(C(=O)NC2CC2)cc1-c1ccc(C(=O)NC2CCCCC2)cc1` [Example 24, N^4′-cyclohexyl-N^3-cyclopropyl-5-fluoro-6-methyl-[1,1′-biphenyl]-3,4′-dicarboxamide], the pIC50 in the data set on TNF-α was 8.00 to 8.30.

With `Cc1c(F)cc(C(=O)NC2CC2)cc1-c1ccc(C(=O)N(C)C2CCCCC2)cc1` [Example 25, N^4′-cyclohexyl-N^3-cyclopropyl-5-fluoro-N^4′,6-dimethyl-[1,1′-biphenyl]-3,4′-dicarboxamide], the pIC50 is more than 8.30 in the data set with TNF-α and 8.00 to 8.30 on p38a.

`Cc1c(F)cc(C(=O)NC2CC2)cc1-c1ccc(C(=O)N2CCC(C)CC2)cc1` [Example 26, N-cyclopropyl-5-fluoro-6-methyl-4′-(4-methylpiperidin-1-carbonyl)-[1,1′-biphenyl]-3-carboxamide]: the pIC50 in the data set with TNF-α was 8.00 to 8.30.

Molecule `Cc1c(F)cc(C(=O)NC2CC2)cc1-c1ccc(C(=O)N2CCCCCC2)cc1` [Example 28, 4′-(azepane-1-carbonyl)-N-cyclopropyl-5-fluoro-6-methyl-[1,1′-biphenyl]-3-carboxamide] had a pIC50 in the data set with TNF-α of 8.00 to 8.30.

As for `Cc1c(F)cc(C(=O)NC2CC2)cc1-c1ccc(C(=O)NCC(C)C)c(F)c1` [Example 30, N^3-cyclopropyl-3′,5-difluoro-N^4′-isobutyl-6-methyl-[1,1′-biphenyl]-3,4′-dicarboxamide], the negative logarithm of the IC50 (pIC50) in the data set on TNF-α and at p38a was more than 8.30 in each case.

Regarding `Cc1c(F)cc(C(=O)NC2CC2)cc1-c1ccc(C(=O)N(C)CC(C)C)c(F)c1` [Example 31, N^3-cyclopropyl-3′,5-difluoro-N^4′-isobutyl-N^4′,6-dimethyl-[1,1′-biphenyl]-3,4′-dicarboxamide], the pIC50 with TNF-α and on p38a was more than 8.30 each time.

`Cc1c(F)cc(C(=O)NC2CC2)cc1-c1ccc(C(=O)NC2CCCC2)c(F)c1` [Example 32, N^4′-cyclopentyl-N^3-cyclopropyl-3′,5-difluoro-6-methyl-[1,1′-biphenyl]-3,4′-dicarboxamide]: the pIC50 with TNF-α and on p38a was more than 8.30 throughout.

As to `Cc1c(F)cc(C(=O)NC2CC2)cc1-c1ccc(C(=O)N(C)C2CCCC2)c(F)c1` [Example 33, N^4′-cyclopentyl-N^3-cyclopropyl-3′,5-difluoro-N^4′,6-dimethyl-[1,1′-biphenyl]-3,4′-dicarboxamide], the negative logarithm of the IC50 (pIC50) with TNF-α was more than 8.30.

Consider `CCC(C)(C)NC(=O)c1ccc(-c2cc(C(=O)NC3CC3)cc(F)c2C)cc1N` [Example 41, 3′-amino-N^3-cyclopropyl-5-fluoro-6-methyl-N^4′-(tertpentyl)-[1,1′-biphenyl]-3,4′-dicarboxamide], for which the pIC50 with TNF-α was more than 8.30.

On to `Cc1c(F)cc(C(=O)NC2CC2)cc1-c1ccc(C(=O)NCC(C)(C)C)c(N)c1` [Example 42, 3′-amino-N^3-cyclopropyl-5-fluoro-6-methyl-N^4′-neo pentyl-[1,1′-biphenyl]-3,4′ -dicarboxamide], for which the pIC50 in the data set on TNF-α was 8.00 to 8.30; against CYP450, 2C9 enzymes it was less than 4.30.

`Cc1c(F)cc(C(=O)NC2CC2)cc1-c1ccc(NC(=O)C2CCCCC2)c(F)c1` [Example 47, 4′-(cyclohexanecarboxamido)-N-cyclopropyl-3′,5-difluoro-6-methyl-[1,1′-biphenyl]-3-carboxamide]: the pIC50 in the data set on TNF-α is 8.00 to 8.30.

Consider `Cc1cc(-c2cc(C(=O)NC3CC3)cc(F)c2C)ccc1NC(=O)NC1CCCC1` [Example 50, 4′-(3-cyclopentylureido)-N-cyclopropyl-5-fluoro-3′,6-dimethyl-[1,1′-biphenyl]-3-carboxamide], for which the pIC50 in the data set with TNF-α was more than 8.30.

Regarding `Cc1c(F)cc(C(=O)NC2CC2)cc1-c1ccc2nc(NCC(C)C)sc2c1` [Example 51, N-cyclopropyl-3-fluoro-5-(2-(isobutylamino)benzo[d]thiazol-6-yl)-4-methylbenzamide], the pIC50 is more than 8.30 in the data set with TNF-α and 8.00 to 8.30 against p38a.

As for `CCCCNc1nc2ccc(-c3cc(C(=O)NC4CC4)cc(F)c3C)cc2s1` [Example 52, 3-(2-(butylamino)benzo [d]thiazol-6-yl)-N-cyclopropyl-5-fluoro-4-methylbenzamide], the pIC50 in the data set with TNF-α and on p38a was 8.00 to 8.30 throughout.

Consider `Cc1c(F)cc(C(=O)NC2CC2)cc1-c1ccc2nc(NC3CCCC3)sc2c1` [Example 54, 3-(2-(cyclopentylamino)benzo[d]thiazol-6-yl)-N-cyclopropyl-5-fluoro-4-methylbenzamide], for which the pIC50 in the data set with TNF-α was 8.00 to 8.30.

Regarding `Cc1c(F)cc(C(=O)NC2CC2)cc1-c1ccc(C(=O)N2CCCCC2)s1` [Example 55, N-cyclopropyl-3-fluoro-4-methyl-5-(5-(piperidin-1-carbonyl)thiophen-2-yl) benzamide], the pIC50 in the data set on TNF-α and on p38a was 8.00 to 8.30 throughout.

With `Cc1c(F)cc(C(=O)NC2CC2)cc1-c1ccc(C(=O)N2CCC(C)CC2)s1` [Example 56, N-cyclopropyl-3-fluoro-4-methyl-5-(5-(4-methylpiperidin-1-carbonyl)thiophen-2-yl)benzamide], the pIC50 in the data set with TNF-α and against p38a was 8.00 to 8.30 in each case.

With `Cc1c(F)cc(C(=O)NC2CC2)cc1-c1ccc(C(=O)NCCC(C)C)nn1` [Example 60, 6-(5-(cyclopropylcarbamoyl)-3-fluoro-2-methylphenyl)-N-isopentylpyridazin-3-carboxamide], the negative-log IC50 (pIC50) with TNF-α is 8.00 to 8.30; against p38a it was more than 8.30.

Regarding `Cc1c(F)cc(C(=O)NC2CC2)cc1-c1ccc(C(=O)N(C)C2CCCCC2)nn1` [Example 62], the pIC50 is 8.00 to 8.30 in the data set with TNF-α and more than 8.30 on p38a.

On to `C=CCNC(=O)c1cc(F)c(C)c(-c2ccc(C(=O)NC3CCCC3)nn2)c1` [Example 79, 6-(5-(allylcarbamoyl)-3-fluoro-2-methylphenyl)-N-cyclopentylpyridazin-3-carboxamide], for which the pIC50 is 8.00 to 8.30 in the data set with TNF-α and more than 8.30 at p38a.

For the molecule `C=CCNC(=O)c1cc(F)c(C)c(-c2ccc(C(=O)NC3CCCCC3)nn2)c1` [Example 80, 6-(5-(allylcarbamoyl)-3-fluoro-2-methylphenyl)-N-cyclohexylpyridazin-3-carboxamide], the negative logarithm of the IC50 (pIC50) was 8.00 to 8.30 in the data set on TNF-α and more than 8.30 at p38a.

`C=CCNC(=O)c1cc(F)c(C)c(-c2ccc(C(=O)NCC(C)(C)C)cn2)c1` [Example 81, 6-(5-(allylcarbamoyl)-3-fluoro-2-methylphenyl)-N-neopentylnicotinamide] showed a pIC50 with TNF-α of 8.00 to 8.30.

For the origin of these results see patent US10550073B2, “Benzamide derivative” (CSPC ZHONGQI PHARMACEUTICAL TECHNOLOGY (SHIJIAZHUANG) CO., …, priority 2015, dated 2020).
